In brackets after ≈: the same amount, converted by molar mass. Peptide text beside a SMILES is read from it.
Assays:
[1] = Precipitation in media for cell culture on storage; format: physicochemical; details: 5.0 mmol/L in medium, stored at 4° C., after 3 days; for precipitation in the medium for cell culture: 20° C. or room temperature
Method: The following media for cell culture were prepared to compare differences in precipitation therebetween.
In 700 mL of water, 31.6 g of AGT Efficient Feed A (manufactured by Invitrogen, Catalog No. AG090231P7), 0.50 mL of polyamine solution (manufactured by Invitrogen, Catalog No. AG090232P8), 27.2 g of AGT Efficient Feed B (manufactured by Invitrogen, Catalog No. AG090230P7), 30.0 g of Hydrolysate (manufactured by DMV, Catalog No. P42474), 70.0 g of glucose (manufactured by Wako Pure Chemical Industries, Catalog No. 041-00595), and 5.0 g of L-(+)-glutamine (manufactured by Wako Pure Chemical Industries, Catalog No. 078-00525) or 7.4 g of L-alanyl-L-glutamine (manufactured by Kyowa Hakko Bio) were mixed.
After stirring for approximately 30 minutes, 7.0 mL of 5 mol/L HCl aqueous solution (manufactured by Wako Pure Chemical Industries, Catalog No. 081-05435) was added, followed by further stirring for approximately 20 minutes and pH was adjusted to 6.5. Thereafter, 50 mL of an alkaline solution containing 0.5 mol/L of NaOH (manufactured by Junsei Chemical, Catalog No. 39155-0301), 100 mmol/L of L-tyrosine disodium salt (manufactured by Sigma, Catalog No. T1145-100G), and 100 mmol/L of L-cystine dihydrochloride (manufactured by Wako Pure Chemical Industries, Catalog No. 034-05322) was added to the prepared aqueous solution of pH 6.5.
A volume of the aqueous solution was adjusted to 1 L with water, followed by stirring for approximately 20 minutes so as to prepare a medium for cell culture. In the medium for cell culture, L-tyrosine disodium salt and L-cystine dihydrochloride were substituted with the same concentration (5.0 mmol/L) of L-alanyl-L-tyrosine (manufactured by Kyowa Hakko Bio) and bis-L-alanyl-L-cysteine (manufactured by Kyowa Hakko Bio) to prepare media for cell culture, respectively. The prepared media for cell culture were stored under three conditions of at 4° C. (refrigerator, manufactured by Hoshizaki), 20° C. (e-Cooling Bucket, manufactured by Taitec), or room temperature.

[2] = cited from earlier work
[3] = H2O, 20° C.; cited from earlier work
[4] = test system: antibody X-expressing CHO cells; assay: Fed-batch culture of CHO cells: number of living cells and survival rate; format: cell-based, Chinese hamster; details: 13 days of culture
Method: The following feed media for cell culture were prepared, and fed-batch culture was carried out using CHO cells for comparison.
(§1) The feed medium was composed of 31.6 g/L of AGT Efficient Feed A (manufactured by Invitrogen, Catalog No. AG090231P7), 0.50 ml/L of polyamine solution (manufactured by Invitrogen, Catalog No. AG090232P8), 27.2 g/L of AGT Efficient Feed B (manufactured by Invitrogen, Catalog No. AG090230P7), 5.0 g/L of L-(+)-glutamine (manufactured by Wako Pure Chemical Industries, Catalog No. 078-00525), 30.0 g/L of hydrolysates (manufactured by DMV, Catalog No. P42474), 70.0 g/L of glucose (manufactured by Wako Pure Chemical Industries, Catalog No. 041-00595), 5.0 mmol/L of L-alanyl-L-tyrosine (Kyowa Hakko Bio), and 5.0 mmol/L, 10 mmol/L or 16 mmol/L of bis-L-alanyl-L-cysteine (manufactured by Kyowa Hakko Bio), and prepared in the same manner as in Example 1.
(§2) In the culture using antibody X-expressing CHO cells, 4.0 mmol/L of glutamine (manufactured by Invitrogen, Catalog No. 25030)-containing EX-CELL325 (manufactured by SAFC, Catalog No. 14340C-1000mL) was used as a main culture medium. The feed medium was added to perform fed-batch culture.

[5] = test system: antibody X-expressing CHO cells; assay: Antibody titer in fed-batch culture of CHO cells; format: cell-based, Chinese hamster; details: 13 days of culture
Method: as §1, §2
In order to examine antibody production, antibody titer was measured at 13 days of culture in the fed-batch culture of CHO cells having an ability to produce the antibody of Example 2. In the feed medium, the […] 0.75 g/L at 5.0 mmol/L, 0.79 g/L at 10 mmol/L, and 0.78 g/L at 16 mmol/L.

C[C@H](N)C(=O)N[C@@H](Cc1ccc(O)cc1)C(=O)O [L-alanyl-L-tyrosine] (H-Ala-Tyr-OH)
precipitation in the medium for cell culture [1]: no precipitation

Cl.Cl.N[C@@H](CSSC[C@H](N)C(=O)O)C(=O)O [L-cystine dihydrochloride]
precipitation in the medium for cell culture [1]: precipitations were observed | precipitation in the medium, low temperature compared with other storage conditions [1]: more precipitation was observed

Cl.N[C@@H](CS)C(=O)O [cysteine hydrochloride]
stability in an aqueous solution [2]: low stability

N[C@@H](CSSC[C@H](N)C(=O)O)C(=O)O [cystine]
solubility [3]: 100 µg/mL (≈ 416 µM)

L-tyrosine disodium salt
precipitation in the medium for cell culture [1]: precipitations were observed | precipitation in the medium, low temperature compared with other storage conditions [1]: more precipitation was observed

C[C@H](N)C(=O)N(C(=O)[C@H](C)N)[C@@H](CS)C(=O)O [bis-L-alanyl-L-cysteine]
Number of living cells ([4]; 5 mmol/L in feed medium): 28.6 10^5 cells/mL | Survival rate ([4]; 5 mmol/L in feed medium): 55.0% | Number of living cells ([4]; 10 mmol/L in feed medium): 44.1 10^5 cells/mL | Survival rate ([4]; 10 mmol/L in feed medium): 78.7% | Number of living cells ([4]; 16 mmol/L in feed medium): 58.1 10^5 cells/mL | Survival rate ([4]; 16 mmol/L in feed medium): 86.6% | precipitation in the medium for cell culture [1]: no precipitation | antibody titer ([5]; 5.0 mmol/L in feed medium): 0.75 g/L | antibody titer ([5]; 10 mmol/L in feed medium): 0.79 g/L | antibody titer ([5]; 16 mmol/L in feed medium): 0.78 g/L

Source: patent US20130130317A1, “METHOD FOR PRODUCING SUBSTANCE” (KYOWA HAKKO KIRIN CO., LTD, priority 2010, published 2013)
